Data: US5141627A, “Chelators whose affinity for calcium ion is increased by illumination” (The Regents of the University of California, priority 1989, dated 1992)

What was measured:
[1] = Covalent modification of lysine by photochemical intermediates (HPLC); conditions: pH 7.2
Description: To study the extent to which biological substrates are covalently modified by reactive intermediates generated by the photolysis of the diazoketones,100 μM diazo-3 in the presence of 10 mM phosphate and either 100 mM KCl or 100 mM lysine.HCl, at pH 7.2 was photolyzed. The photolysates were analyzed by HPLC (Waters Associates, Inc., Milford, Mass.; C-18 column, Supelco, Inc., Bellefonte, Pa.), with 10 mM KH2 PO4 /K2 HPO4 buffer at pH 7.2 as eluting solvent. The absorbance of the eluate at 254 nm was monitored. Before being injected onto the column, concentrated stock solutions of either KCl or lysine.HCl were added to the photolysate to insure that the electrolyte composition of the injected samples were identical. Thus, 10 μL of 1M KCl were added to 100 μL of the samples of diazo-3 photolyzed in lysine.HCl, while 10 μL of 1M lysine.HCl were added to 100 μL of the sample of diazo-3 photolyzed in KCl.

[2] = tested on: cells; experiment: Effect in cells of microinjected chelator on Ca2+ after photolysis; assay type: cell-based; conditions: microinjected into cells
[3] = Chemical stability in aqueous base or acid; assay type: physicochemical
Source text: Diazo-2 tetramethyl ester, Compound 3J, was saponified to the tetra-anion by dissolution in methanol (gentle heat), addition of an excess of aqueous 1M potassium hydroxide solution and keeping at room temperature several hours, preferably overnight. […] The purity of diazo-2 solutions can be determined by measuring the extent of absorbance change on complete photolysis (FIG. 1B) as contaminants contribute absorbance at 355 nm. Diazo-1, -3, and -4 esters were saponified analogously.

Row | Structure (SMILES) | covalently modified lysines ([1]; 100 μM diazo-3, 200 mM lysine.HCl (so in the source)) [lysines in 10^5] | frequency of covalent lysine modification ([1]; 100 μM diazo-3 photolyzed in 100 mM lysine.HCl) | absorbance under new (lysine-modified) peak ([1]; 100 μM diazo-3 photolyzed in 100 mM lysine.HCl, % of total absorbance) | modified lysine produced ([1]; 100 μM diazo-3 photolyzed in 100 mM lysine.HCl, calculated) | sequestering Ca2+ after photolysis (in words) [2] | stability on concentration to a solid (in words) ([3]; from dilute aqueous base, concentrated to a solid) | stability in dilute aqueous base (in words) ([3]; methanol/aqueous KOH, room temperature, several hours to overnight) | stability in strong aqueous base or acid (in words) ([3]; pH>13 or pH<4)
1 | COc1cc(C(=O)C=[N+]=[N-])ccc1N(CC(=O)O)CC(=O)O [diazo-3, 2-methoxy-4-(diazoacetyl)aniline-N, N-diacetic acid] | 6 | about 6×10^-5 | about 6% | about 6 μM | – | – | – | –
2 | Cc1ccc(N(CC(=O)O)CC(=O)O)c(OCCOc2cc(C(=O)C=[N+]=[N-])ccc2N(CC(=O)O)CC(=O)O)c1 [diazo-2, 1-(2-bis(carboxymethyl)amino-5-methyl) phenoxy-2-(2-bis(carboxymethyl)amino-5-(diazoacetyl)phenoxy) ethane] | – | – | – | – | effective in sequestering Ca^2+ after photolysis | decomposes and becomes light-insensitive | stable | unstable
